Measured values taken from US20220402914A1, “Tryptoline-Based Benzothiazoles and their use as Antibiotics and Antibiotic Resistance-Modifying Agents” (The Regents of the University of Colorado, a body corporate, priority 2019, published 2022).
≈ marks a conversion by molar mass, not a printed value. Where “and” joins values, the source holds several entries; their conditions need not be identical. Identical values can stand only once.

Tests used:
MRSA ATCC BAA-44 [1] = test: Minimal inhibitory concentration (MIC), standard broth microdilution; assay type: cell-based, Staphylococcus aureus; settings: for MIC: Staphylococcus aureus, MRSA BAA-44 strain, read-out: MIC; for concentration that inhibited the growth of MRSA BAA-44 on average (antibiotic controls): antibiotic alone; for MIC (in words): MRSA BAA-44
Procedure: (§1) RMA activity of the analogues was tested by assessing their abilities to sensitize MRSA to the antibiotic cefazolin (a first-generation cephalosporin). The well characterized strain MRSA ATCC BAA-44 was tested as previously described. […] The minimal inhibitory concentration (MIC), or the lowest concentration at which S. aureus is considered susceptible to an antibacterial, was determined by the standard broth microdilution method detailed in the CLSI handbook. RMA activity was compared by the ratio of MIC/MRC. The half growth inhibitory concentration (GI50) of each analogue against HeLa cells was determined as previously described. […] The luminescence of each sample was recorded in an Envision Multilabel Plate Reader (Perkin Elmer). Results of MICs and MRCs were confirmed by testing in triplicate. The GI50 assay was performed in duplicate.

HeLa cells = test: GI50 against HeLa cells, Cell Titer Glo viability assay; assay type: cell-based, human; settings: 24 h
Procedure: as §1

MRSA ATCC BAA-44 [2] = test: Minimum re-sensitizing concentration (MRC) in the presence of cefazolin; assay type: cell-based, Staphylococcus aureus; settings: MRSA BAA-44, cefazolin
Procedure: as §1

| SMILES | MIC (MRSA ATCC BAA-44 [1]) | GI50 (HeLa cells) | further results |
| --- | --- | --- | --- |
| CCn1c2c(c3cc(Cl)ccc31)CCN(c1nc3ccc(Cl)cc3s1)C2 [Compound 4o, 6-Chloro-2-(6-chloro-1,3-benzothiazol-2-yl)-9-ethyl-2,3,4,9-tetrahydro-1H-pyrido[3,4-b]indole] | – | – | RMA activity (in words) (MRSA ATCC BAA-44 [2]): abolished |
| Cl.Nc1cc(C(F)(F)F)c2nc(N3CCc4c([nH]c5ccc(Cl)cc45)C3)sc2c1 [Compound 4ah, 2-(6-Chloro-1,3,4,9-tetrahydro-2H-pyrido[3,4-b]indol-2-yl)-4-(trifluoromethyl)-1,3-benzothiazol-6-aminium chloride] | 16 µg/mL | 32 µg/mL | – |
| Clc1ccc2sc(N3CCc4c([nH]c5ccc(Cl)cc45)C3)nc2c1 [Compound 4v, 6-Chloro-2-(5-chloro-1,3-benzothiazol-2-yl)-2,3,4,9-tetrahydro-1H-pyrido[3,4-b]indole] | – | – | RMA activity (in words) (MRSA ATCC BAA-44 [2]): no RMA activity |
| Cc1nnc(SCC2=C(C(=O)O)N3C(=O)[C@@H](NC(=O)Cn4cnnn4)[C@H]3SC2)s1 [Cefazolin, reference compound] | – | – | concentration that inhibited the growth of MRSA BAA-44 on average (antibiotic controls) (MRSA ATCC BAA-44 [1]): 128 µg/mL and 256 µg/mL |
| FC(F)(F)c1cnc2nc(N3CCc4c([nH]c5ccc(Cl)cc45)C3)sc2c1 [Compound 4e, 6-Chloro-2-[6-(trifluoromethyl)[1,3]thiazolo[4,5-b]pyridin-2-yl]-2,3,4,9-tetrahydro-1H-pyrido[3,4-b]indole] | – | – | RMA activity (in words) (MRSA ATCC BAA-44 [2]): abolished |
| Clc1ccc2nc(N3CCc4c([nH]c5cccc(Cl)c45)C3)sc2c1 [Compound 4f, 5-Chloro-2-(6-chloro-1,3-benzothiazol-2-yl)-2,3,4,9-tetrahydro-1H-pyrido[3,4-b]indole] | > 16 µg/mL | – | – |
| Cc1ccc2nc(N3CCc4c([nH]c5ccc(Cl)cc45)C3)sc2c1 [Compound 4c, 6-Chloro-2-(6-methyl-1,3-benzothiazol-2-yl)-2,3,4,9-tetrahydro-1H-pyrido[3,4-b]indole] | – | – | RMA activity (in words) (MRSA ATCC BAA-44 [2]): no RMA activity |
| Clc1ccc2[nH]c3c(c2c1)CCN(c1nc2c(Cl)cc(Br)cc2s1)C3 [Compound 4ac, 2-(6-Bromo-4-chloro-1,3-benzothiazol-2-yl)-6-chloro-2,3,4,9-tetrahydro-1H-pyrido[3,4-b]indole] | > 32 µg/mL | 22 µg/mL (≈ 48.5 µM) | – |
| CN(C)C(=O)C1CN(c2nc3ccc(Cl)cc3s2)Cc2[nH]c3ccc(Cl)cc3c21 (racemic) [Compound 9, 6-Chloro-2-(6-chlorobenzo[d]thiazol-2-yl)-N,N-dimethyl-2,3,4,9-tetrahydro-1H-pyrido[3,4-b]indole-4-carboxamide] | – | – | RMA activity (in words) (MRSA ATCC BAA-44 [2]): significantly decreased or abolished the RMA activity |
| Cl.NCC(=O)Nc1cc(Cl)c2nc(N3CCc4c([nH]c5ccc(Cl)cc45)C3)sc2c1 [Compound 4ae, 2-amino-N-(4-chloro-2-(6-chloro-1,3,4,9-tetrahydro-2H-pyrido[3,4-b]indol-2-yl)benzo[d]thiazol-6-yl)acetamide hydrochloride] | – | 14.8 µg/mL | MIC (in words) (MRSA ATCC BAA-44 [1]): excellent MICs |
| Cl.NCCNc1cc(C(F)(F)F)c2nc(N3CCc4c([nH]c5ccc(Cl)cc45)C3)sc2c1 [Compound 4aj, N1-(2-(6-chloro-1,3,4,9-tetrahydro-2H-pyrido[3,4-b]indol-2-yl)-4-(trifluoromethyl)benzo[d]thiazol-6-yl)ethane-1,2-diamine hydrochloride] | – | 7.4 µg/mL | MIC (in words) (MRSA ATCC BAA-44 [1]): excellent MICs |
| Clc1cc(Cl)c2nc(N3CCc4c([nH]c5ccc(Cl)cc45)C3)sc2c1 [Compound 4x, 6-Chloro-2-(4,6-dichloro-1,3-benzothiazol-2-yl)-2,3,4,9-tetrahydro-1H-pyrido[3,4-b]indole] | 2 µg/mL (≈ 4.89 µM) | 16.1 µg/mL (≈ 39.4 µM) | MIC (in words) (MRSA ATCC BAA-44 [1]): excellent MICs |
| COCOCC1CN(c2nc3ccc(Cl)cc3s2)Cc2[nH]c3ccc(Cl)cc3c21 (racemic) [Compound 11, 6-Chloro-2-(6-chloro-4-((methoxymethoxy)methyl)-1,3,4,9-tetrahydro-2H-pyrido[3,4-b]indol-2-yl)benzo[d]thiazole] | – | 7.0 µg/mL (≈ 15.6 µM) | – |
| Clc1ccc2[nH]c3c(c2c1)CCN(c1nc2ccccc2s1)C3 [Compound 4b, 2-(1,3-Benzothiazol-2-yl)-6-chloro-2,3,4,9-tetrahydro-1H-pyrido[3,4-b]indole] | – | – | RMA activity (in words) (MRSA ATCC BAA-44 [2]): no RMA activity |
| Clc1ccc2[nH]c3c(c2c1)CCN(c1nc2ncccc2s1)C3 [Compound 4d, 6-Chloro-2-([1,3]thiazolo[4,5-b]pyridin-2-yl)-2,3,4,9-tetrahydro-1H-pyrido[3,4-b]indole] | – | – | RMA activity (in words) (MRSA ATCC BAA-44 [2]): abolished |
| NCC1CN(c2nc3ccc(Cl)cc3s2)Cc2[nH]c3ccc(Cl)cc3c21 (racemic) [Compound 12b, (6-Chloro-2-(6-chlorobenzo[d]thiazol-2-yl)-2,3,4,9-tetrahydro-1H-pyrido[3,4-b]indol-4-yl)methanamine] | – | 1.5 µg/mL (≈ 3.72 µM) | – |
| NCCNCC1CN(c2nc3ccc(Cl)cc3s2)Cc2[nH]c3ccc(Cl)cc3c21 (racemic) [Compound 12e, N1-((6-chloro-2-(6-chlorobenzo[d]thiazol-2-yl)-2,3,4,9-tetrahydro-1H-pyrido[3,4-b]indol-4-yl)methyl)ethane-1,2-diamine] | – | 2.4 µg/mL (≈ 5.38 µM) | – |
| Cl.NCCSCC1CN(c2nc3ccc(Cl)cc3s2)Cc2[nH]c3ccc(Cl)cc3c21 (racemic) [Compound 12a, 2-(((6-Chloro-2-(6-chlorobenzo[d]thiazol-2-yl)-2,3,4,9-tetrahydro-1H-pyrido[3,4-b]indol-4-yl)methyl)thio)ethan-1-amine hydrochloride] | – | 3.8 µg/mL | – |
| CO/N=C(\C(=O)N[C@@H]1C(=O)N2C(C(=O)O)=C(COC(N)=O)CS[C@H]12)c1ccco1 [Cefuroxime, reference compound] | – | – | concentration that inhibited the growth of MRSA BAA-44 on average (antibiotic controls) (MRSA ATCC BAA-44 [1]): 128 µg/mL and 256 µg/mL |
| OCC1CN(c2nc3ccc(Cl)cc3s2)Cc2[nH]c3ccc(Cl)cc3c21 (racemic) [Compound 10, (6-Chloro-2-(6-chlorobenzo[d]thiazol-2-yl)-2,3,4,9-tetrahydro-1H-pyrido[3,4-b]indol-4-yl)methanol] | – | 10.8 µg/mL (≈ 26.7 µM) | – |

Second part, led by results:

| MIC (MRSA ATCC BAA-44 [1]) | SMILES | GI50 (HeLa cells) | further results |
| --- | --- | --- | --- |
| > 32 µg/mL | Oc1cc(Cl)c2nc(N3CCc4c([nH]c5ccc(Cl)cc45)C3)sc2c1 [Compound 4aa, 4-Chloro-2-(6-chloro-1,3,4,9-tetrahydro-2H-pyrido[3,4-b]indol-2-yl)-1,3-benzothiazol-6-ol] | 5.5 µg/mL (≈ 14.1 µM) | – |
| 4 µg/mL (≈ 9.29 µM) | N=CNCC1CN(c2nc3ccc(Cl)cc3s2)Cc2[nH]c3ccc(Cl)cc3c21 (racemic) [Compound 12f, N-((6-chloro-2-(6-chlorobenzo[d]thiazol-2-yl)-2,3,4,9-tetrahydro-1H-pyrido[3,4-b]indol-4-yl)methyl)formimidamide] | 3.8 µg/mL (≈ 8.83 µM) | – |
| 8 µg/mL (≈ 18.5 µM) | NCCOc1cc(Cl)c2nc(N3CCc4c([nH]c5ccc(Cl)cc45)C3)sc2c1 [Compound 4ab, 2-((4-Chloro-2-(6-chloro-1,3,4,9-tetrahydro-2H-pyrido[3,4-b]indol-2-yl)benzo[d]thiazol-6-yl)oxy)ethan-1-amine] | – | – |
| 2 µg/mL (≈ 4.64 µM) | CN(C)CC1CN(c2nc3ccc(Cl)cc3s2)Cc2[nH]c3ccc(Cl)cc3c21 (racemic) [Compound 12c, 1-(6-Chloro-2-(6-chlorobenzo[d]thiazol-2-yl)-2,3,4,9-tetrahydro-1H-pyrido[3,4-b]indol-4-yl)-N,N-Dimethylmethanamine] | 5.2 µg/mL (≈ 12.1 µM) | – |
| > 16 µg/mL | Clc1ccc2nc(N3CCc4c([nH]c5c(Cl)cccc45)C3)sc2c1 [Compound 4h, 8-Chloro-2-(6-chloro-1,3-benzothiazol-2-yl)-2,3,4,9-tetrahydro-1H-pyrido[3,4-b]indole] | – | – |
| 2 µg/mL (≈ 4.88 µM) | FC(F)(F)c1cccc(NC(=S)N2CCc3c([nH]c4ccc(Cl)cc34)C2)c1 [Compound 5c, 6-Chloro-N-[3-(trifluoromethyl)phenyl]-1,3,4,9-tetrahydro-2H-pyrido[3,4-b]indole-2-carbothioamide] | – | – |
| 4 µg/mL (≈ 10.6 µM) | S=C(Nc1ccc(Cl)cc1)N1CCc2c([nH]c3ccc(Cl)cc23)C1 [Compound 5a, 6-Chloro-N-(4-chlorophenyl)-1,3,4,9-tetrahydro-2H-pyrido[3,4-b]indole-2-carbothioamide] | – | – |
| 8 µg/mL | C[N+](C)(C)CC1CN(c2nc3ccc(Cl)cc3s2)Cc2[nH]c3ccc(Cl)cc3c21.[I-] (racemic) [Compound 12d, 1-(6-Chloro-2-(6-chlorobenzo[d]thiazol-2-yl)-2,3,4,9-tetrahydro-1H-pyrido[3,4-b]indol-4-yl)-N,N,N-trimethylmethanaminium iodide] | – | – |
| 2 µg/mL (≈ 4.51 µM) | Clc1ccc2[nH]c3c(c2c1)CCN(c1nc2c(Cl)c(Cl)c(Cl)cc2s1)C3 [Compound 4y, 6-Chloro-2-(4,5,6-trichloro-1,3-benzothiazol-2-yl)-2,3,4,9-tetrahydro-1H-pyrido[3,4-b]indole] | 11.7 µg/mL (≈ 26.4 µM) | MIC (in words) (MRSA ATCC BAA-44 [1]): excellent MICs |
| 4 µg/mL (≈ 9.55 µM) | Clc1ccc2nc(N3CCc4c([nH]c5ccc(Br)cc45)C3)sc2c1 [Compound 4j, 6-Bromo-2-(6-chloro-1,3-benzothiazol-2-yl)-2,3,4,9-tetrahydro-1H-pyrido[3,4-b]indole] | – | – |
| 4 µg/mL (≈ 8.22 µM) | FC(F)(F)c1cc(Br)cc2sc(N3CCc4c([nH]c5ccc(Cl)cc45)C3)nc12 [Compound 4ag, 2-[6-Bromo-4-(trifluoromethyl)-1,3-benzothiazol-2-yl]-6-chloro-2,3,4,9-tetrahydro-1H-pyrido[3,4-b]indole] | 5.9 µg/mL (≈ 12.1 µM) | – |
